Test results reported in ChEMBL document CHEMBL4619798, “Bioreducible Phosphonoamidate Pro-drug Inhibitor of Enolase: Proof of Concept Study” (ACS Med Chem Lett, 2020).

Assays:
[1] = Cytotoxicity against human D423 cells with ENO1 deficient assessed as reduction in cell viability incubated for 5 days by crystal violet staining based spectrophotometry; details: 120 h
[2] = Cytotoxicity against human D423 cells with ENO1 deficient assessed as reduction in cell viability incubated for 5 days in presence of 21 % oxygen by crystal violet staining based spectrophotometry; details: 120 h
[3] = Stability in human plasma assessed as formation of monoester metabolite measured upto 22 hrs by NMR analysis; type: ADME, cell-free
[4] = Cytotoxicity against human D423 cells with ENO1 deficient assessed as reduction in cell viability incubated for 5 days in presence of 1 % oxygen by crystal violet staining based spectrophotometry; details: 120 h
[5] = Stability in human plasma assessed as formation of monoester metabolite measured at less than 30 mins by NMR analysis; type: ADME, cell-free; details: 0.5 h

CC(C)(C)C(=O)OCOP(=O)(NCc1ccccc1)C1CCCN(O)C1=O (stereo unspecified)
IC50 [1]: 98 nM

CC(=O)ON1CCCC(P(=O)(NCc2ccccc2)OCc2ccc([N+](=O)[O-])o2)C1=O (stereo unspecified)
IC50 [2]: 299 nM
Stability [3]: Stable
IC50 [4]: 136 nM

CC(C)(C)C(=O)OCOP(=O)(OCOC(=O)C(C)(C)C)C1CCCN(O)C1=O (stereo unspecified)
IC50 [2]: 79 nM
IC50 [1]: 38 nM
IC50 [4]: 201 nM
Stability [5]: Unstable

O=C1C(P(=O)(O)O)CCCN1O (stereo unspecified)
IC50 [1]: 11800 nM

Cn1c(COP(=O)(NCCBr)NCCBr)cnc1[N+](=O)[O-] [EVOFOSFAMIDE]
IC50 [2]: 3200 nM
IC50 [4]: 404 nM
